# From the supplement of paper PMC10307832
# Experiments:
# Test in all cases: relative viability (nuclei count vs DMSO), 5 days (fraction); higher = more cells survive
# Tosedostat = compound: CC(C)C[C@@H](C(=O)N[C@H](C(=O)OC1CCCC1)c1ccccc1)[C@H](O)C(=O)NO [Tosedostat]
# In short: (§1)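 Cells of lung cancer lines were placed in 1536-well plates and kept overnight at 37 °C. Pinning then delivered five library-drug doses (not always all listed), spaced by √10, onto plates anchored with vehicle, and the cells were left 5 days without changing medium. One step fixed, permeabilised and stained them with Hoechst, and MetaXpress counted nuclei in 4× images. Viability, as a median over plates, is treated-well nuclei divided by vehicle-well nuclei, with acceptance only at control CV below 25% and at least one doubling.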
# [1] = compound: CC1=NN=C(O1)C2=NN=C(C=C2)N3CCC(CC3)OC4=C(C=CC(=C4)F)Cl
# In short: as §1
# Tosedostat + OSI-027 = compound: CC(C)C[C@@H](C(=O)N[C@H](C(=O)OC1CCCC1)c1ccccc1)[C@H](O)C(=O)NO [Tosedostat] + COc1cccc2cc(-c3nc([C@H]4CC[C@H](C(=O)O)CC4)n4ncnc(N)c34)[nH]c12 [OSI-027] (partner 0.5 µM)
# In short: (§2)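 Five library-drug doses in √10 steps were combined with a fixed anchor-drug dose, or a single drug was given alone, by pin tool to lung cancer cell lines in 1536-well plates the day after seeding. Nuclei were stained and counted after 5 days. Relative viability is the nuclei count in treated wells over that in vehicle wells, taken as the median of duplicate plates.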
# [2] = compound: CC1=NN=C(O1)C2=NN=C(C=C2)N3CCC(CC3)OC4=C(C=CC(=C4)F)Cl + Nc1nc2[nH]cc(CCc3ccc(C(=O)N[C@@H](CCC(=O)O)C(=O)O)cc3)c2c(=O)[nH]1 [Pemetrexed] (partner 0.2 µM)
# In short: as §2
Cell Line,relative viability (Tosedostat; 0.02 µM),relative viability (Tosedostat; 0.06325 µM),relative viability (Tosedostat; 0.2 µM),relative viability (Tosedostat; 0.6325 µM),relative viability (Tosedostat; 2 µM),relative viability ([1]; 0.253 µM),relative viability ([1]; 0.8 µM),relative viability ([1]; 2.53 µM),relative viability ([1]; 8 µM),relative viability (Tosedostat + OSI-027; first compound 0.02 µM),relative viability (Tosedostat + OSI-027; first compound 0.06325 µM),relative viability (Tosedostat + OSI-027; first compound 0.6325 µM),relative viability (Tosedostat + OSI-027; first compound 2 µM),relative viability ([2]; first compound 0.253 µM),relative viability ([2]; first compound 0.8 µM),relative viability ([2]; first compound 2.53 µM),relative viability ([2]; first compound 8 µM),relative viability (Tosedostat + OSI-027; first compound 0.2 µM)
NCI-H520,1.02,0.977,0.937,1.15,1.14,0.91,0.813,1.16,0.968,0.215,0.285,0.335,0.22,0.644,0.543,0.642,0.471,–
NCI-H522,0.908,1.01,0.897,1.05,1.01,0.964,0.933,0.957,0.955,0.842,0.82,0.916,0.79,1.02,0.947,1.14,0.959,0.819
NCI-H596,1.03,1.08,1.12,1.01,0.967,0.982,0.806,1.06,0.813,0.826,0.924,0.564,0.629,0.52,0.494,0.476,0.394,0.909
NCI-H647,1.02,1.01,1.02,0.977,0.883,0.65,0.642,0.66,0.413,0.541,0.667,0.4,0.585,0.11,0.158,0.13,0.111,0.515
NCI-H650,1.07,0.988,0.731,0.787,0.789,0.927,0.72,0.865,0.71,0.611,0.5,0.455,0.364,0.943,0.65,0.781,0.814,0.454
NCI-H661,1.01,0.991,0.948,0.926,0.934,0.859,0.816,0.731,0.71,0.706,0.767,0.648,0.561,0.736,0.695,0.676,0.652,0.714
NCI-H838,0.965,0.957,0.951,1.01,1.11,0.885,0.752,0.886,0.78,0.383,0.413,0.503,0.404,0.235,0.251,0.215,0.23,0.445
NCI-H1355,0.961,0.936,1.04,0.838,0.905,0.685,0.592,0.915,0.82,0.377,0.399,0.413,0.351,0.715,0.562,0.949,0.874,0.442
NCI-H1395,0.894,0.938,0.972,0.889,0.78,0.823,0.762,0.813,0.882,0.59,0.618,0.672,0.621,0.69,0.668,0.831,0.812,0.644
NCI-H1437,1,0.987,1.05,0.97,0.889,0.741,0.642,0.707,0.632,0.977,0.969,0.828,0.805,0.24,0.282,0.232,0.218,0.846
NCI-H1563,1.03,1.07,1.05,1.13,1.08,0.986,0.954,0.995,0.993,0.813,0.797,0.891,0.836,0.735,0.878,0.825,0.648,0.788
NCI-H1648,1.01,0.923,0.881,0.935,0.578,0.435,0.462,0.56,0.496,0.28,0.268,0.242,0.267,0.593,0.625,0.647,0.685,0.262
NCI-H1650,0.895,0.85,0.94,0.911,0.98,–,0.756,0.749,0.722,0.606,0.633,0.639,0.706,0.317,0.349,0.33,0.343,0.662
NCI-H1651,1.06,0.984,0.973,0.921,0.899,0.819,0.795,0.784,0.682,0.747,0.801,0.708,0.598,0.488,0.422,0.445,0.444,0.62
NCI-H1666,1,0.933,1.02,1.08,0.999,0.707,0.844,0.835,0.782,0.839,0.856,0.835,0.845,0.735,0.69,0.741,0.751,0.822
NCI-H1734,1.1,0.903,0.959,0.866,0.822,0.954,0.729,0.966,0.859,0.593,0.669,0.571,0.564,0.433,0.364,0.434,0.438,0.64
NCI-H1755,1,0.999,1.05,1,0.971,0.661,0.746,0.759,0.731,0.743,0.731,0.674,0.463,0.424,0.426,0.418,0.365,0.642

Cell Line,relative viability (Tosedostat; 0.02 µM),relative viability (Tosedostat; 0.06325 µM),relative viability (Tosedostat; 0.2 µM),relative viability (Tosedostat; 0.6325 µM),relative viability (Tosedostat; 2 µM),relative viability ([1]; 0.253 µM),relative viability ([1]; 0.8 µM),relative viability ([1]; 2.53 µM),relative viability ([1]; 8 µM),relative viability (Tosedostat + OSI-027; first compound 0.02 µM),relative viability (Tosedostat + OSI-027; first compound 0.06325 µM),relative viability (Tosedostat + OSI-027; first compound 0.6325 µM),relative viability (Tosedostat + OSI-027; first compound 2 µM),relative viability ([2]; first compound 0.253 µM),relative viability ([2]; first compound 0.8 µM),relative viability ([2]; first compound 2.53 µM),relative viability ([2]; first compound 8 µM),relative viability (Tosedostat + OSI-027; first compound 0.2 µM)
NCI-H1792,1.01,1.11,0.963,0.828,1.07,0.748,0.741,0.833,0.846,0.71,0.68,0.729,1.08,0.735,0.648,0.785,0.6,0.752
NCI-H1793,0.815,0.88,0.92,0.913,0.79,0.877,0.776,1.02,0.755,0.264,0.271,0.258,0.24,0.843,0.835,0.977,0.79,0.293
NCI-H1915,1.15,0.949,0.998,0.988,0.891,0.607,0.341,0.497,0.407,0.659,0.614,0.585,0.532,0.376,0.232,0.3,0.235,0.643
NCI-H1944,1.01,0.921,0.928,0.889,0.853,0.429,0.487,0.515,0.466,0.424,0.401,0.381,0.38,0.372,0.328,0.493,0.369,0.422
NCI-H1975,0.973,1,0.884,0.788,0.733,–,0.676,0.918,0.849,0.822,0.743,0.552,0.424,0.217,0.272,0.271,0.25,0.708
NCI-H1993,1,0.958,0.847,0.631,0.703,0.772,0.864,0.954,0.833,0.555,0.476,0.548,0.442,0.533,0.499,0.566,0.541,0.564
NCI-H2009,1.16,0.94,0.988,0.926,0.866,0.613,0.552,0.61,0.539,0.696,0.605,0.4,0.367,0.605,0.547,0.587,0.517,0.498
NCI-H2023,1.05,0.916,0.937,0.713,0.942,0.513,0.451,0.579,0.431,0.431,0.383,0.251,0.231,0.188,0.189,0.235,0.182,0.328
NCI-H2085,0.918,1.02,0.983,1.02,0.99,0.901,0.736,0.908,0.795,0.555,0.797,0.699,0.673,0.801,0.676,0.841,0.696,0.704
NCI-H2087,1.21,1.06,1.11,0.819,0.942,0.771,0.569,0.659,0.621,0.664,0.497,0.543,0.559,0.561,0.534,0.511,0.47,0.487
NCI-H2126,0.976,1.01,1.01,0.903,0.865,0.832,0.869,0.928,0.864,0.714,0.786,0.614,0.583,0.69,0.607,0.635,0.606,0.622
NCI-H2170,0.997,0.963,1.02,0.984,0.89,0.481,0.52,0.607,0.444,0.749,0.738,0.773,0.571,0.241,0.218,0.242,0.256,0.736
NCI-H2228,1.22,1.1,0.881,0.837,0.686,0.904,0.921,0.979,0.834,0.728,0.574,0.387,0.363,0.28,0.333,0.3,0.363,0.571
NCI-H2342,0.954,0.998,0.986,0.944,0.94,0.678,0.675,0.604,0.525,0.627,0.708,0.576,0.599,0.646,0.663,0.701,0.614,0.632
NCI-H2347,1.01,1.05,1.05,0.927,0.833,0.883,0.771,0.893,0.783,0.364,0.203,0.353,0.427,0.422,0.406,0.442,0.39,0.459
NCI-H2405,1.16,1,0.991,0.95,0.92,0.577,0.495,0.553,0.525,0.662,0.637,0.596,0.585,0.595,0.562,0.563,0.594,0.707
NCI-H3122,1.06,1.01,1.03,1.02,1.02,0.47,0.444,0.478,0.432,1.15,0.985,0.963,0.588,0.138,0.142,0.16,0.143,1.01
